Common to all, as to assay type: in vivo
For one experiment, the system named is Kochia (Kochia scoparia). The experiment in a line: Test A postemergence. The note with it: Bassia scoparia, post-emergence, 240 h, 125 g ai/ha, postemergence; visual injury after approximately 10 d; 0 to 100 scale (0 no effect, 100 complete control); read-out: Plant response rating, Kochia. The procedure, abridged: (§1)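 In a loam soil and sand blend, planted seeds got a preemergence directed soil spray, and young plants at the one- to two-leaf stage, 2–10 cm high, got a postemergence application; ~10 d greenhouse hold; injury rated visually, 0 = none, 100 = complete control.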

For experiment [1], the system named is barnyardgrass (Echinochloa crus-galli). Kind of experiment: Test A postemergence. As to conditions: Echinochloa crus-galli, post-emergence, 240 h, 125 g ai/ha, postemergence; visual injury after approximately 10 d; 0 to 100 scale (0 no effect, 100 complete control); read-out: Plant response rating, Barnyardgrass. The procedure, abridged:
as §1

In experiment [2] the test system is giant foxtail (Setaria faberii). The experiment in a line: Test A postemergence. The note with it: Setaria faberi, post-emergence, 240 h, 125 g ai/ha, postemergence; visual injury after approximately 10 d; 0 to 100 scale (0 no effect, 100 complete control); read-out: Plant response rating, Foxtail, Giant. The essentials: as §1
Experiment [3] concerns pigweed (Amaranthus retroflexus). The experiment in a line: Test A postemergence. As to conditions: Amaranthus retroflexus, post-emergence, 240 h, 125 g ai/ha, postemergence; visual injury after approximately 10 d; 0 to 100 scale (0 no effect, 100 complete control); read-out: Plant response rating, Pigweed. The procedure, abridged: as §1
In another experiment the test system is corn (Zea mays). The experiment in a line: Test A postemergence. As to conditions: Zea mays, post-emergence, 240 h, 125 g ai/ha, postemergence; visual injury after approximately 10 d; 0 to 100 scale (0 no effect, 100 complete control). The essentials:
as §1

Experiment [4] deals with ryegrass, Italian (Italian ryegrass, Lolium multiflorum). Kind of experiment: Test A postemergence. The note with it: Lolium multiflorum, post-emergence, 240 h, 125 g ai/ha, postemergence; visual injury after approximately 10 d; 0 to 100 scale (0 no effect, 100 complete control); read-out: Plant response rating, Ryegrass, Italian. The essentials:
as §1

Experiment [5] relates to ragweed (common ragweed, Ambrosia elatior). The experiment in a line: Test A postemergence. As to conditions: Ambrosia artemisiifolia, post-emergence, 240 h, 125 g ai/ha, postemergence; visual injury after approximately 10 d; 0 to 100 scale (0 no effect, 100 complete control); read-out: Plant response rating, Ragweed. The essentials:
as §1

For experiment [6], the system named is Galium (catchweed bedstraw, Galium aparine). Kind of experiment: Test A postemergence. As to conditions: Galium, post-emergence, 240 h, 125 g ai/ha, postemergence; visual injury after approximately 10 d; 0 to 100 scale (0 no effect, 100 complete control); read-out: Plant response rating, Galium. The procedure, abridged:
as §1

Experiment [7] deals with blackgrass (Alopecurus myosuroides). Kind of experiment: Test A postemergence. As to conditions: Alopecurus myosuroides, post-emergence, 240 h, 125 g ai/ha, postemergence; visual injury after approximately 10 d; 0 to 100 scale (0 no effect, 100 complete control); read-out: Plant response rating, Blackgrass. The essentials: as §1
Experiment [8] has as its system barnyardgrass (Echinochloa crus-galli). The experiment in a line: Test B flooded paddy test. The note with it: Echinochloa crus-galli, Flood, 250 g ai/ha; scale of 0 to 100 where 0 is no effect and 100 is complete control; read-out: Barnyardgrass plant response rating. The procedure, abridged:
(§2)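 Flooding to 3 cm over soil accompanied treatment, which consisted of adding compound to the standing water around 2-leaf plants; depth was then maintained. Visual assessment versus controls followed at 13 to 15 d (scale 0–100, 0 meaning no effect).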

Experiment [9] concerns ducksalad (Heteranthera limosa). The experiment in a line: Test B flooded paddy test. The note with it: Heteranthera limosa, Flood, 250 g ai/ha; scale of 0 to 100 where 0 is no effect and 100 is complete control; read-out: Ducksalad plant response rating. The procedure, abridged:
as §2

The test system of the next experiment is rice (Oryra sativa). Kind of experiment: Test B flooded paddy test. The note with it: Oryza sativa, Flood, 250 g ai/ha; scale of 0 to 100 where 0 is no effect and 100 is complete control; read-out: Rice plant response rating. The essentials:
as §2

Experiment [10] concerns sedge, umbrella (small-flower umbrella sedge, Cyperus difformis). Kind of experiment: Test B flooded paddy test. As to conditions: Cyperus difformis, Flood, 250 g ai/ha; scale of 0 to 100 where 0 is no effect and 100 is complete control; read-out: Sedge, Umbrella plant response rating. The essentials: as §2

Pest or weed control and Corn plant response rating (crop injury, 0 = no effect, 100 = complete kill) data for one molecule are collected here from US12077503B2, “Substituted cyclic amides and their use as herbicides” (FMC CORPORATION, priority 2015, dated 2024).

With `CN1C[C@H](c2ccc(OC(F)F)cc2)[C@@H](C(=O)Nc2ccccc2S(C)(=O)=O)C1=O` [Compound 788], the pest or weed control at 125 g/ha is 40% in the experiment on Kochia (Kochia scoparia); 80% in [1]; 70% in experiment [2]; 60% in [3]; 20% in experiment [4]; 40% in experiment [5]. For the same molecule, the pest or weed control at 125 g/ha came to 50% in [6] and 20% in experiment [7]. Also, the Corn plant response rating (crop injury, 0 = no effect, 100 = complete kill) at 125 g/ha in the experiment with corn (Zea mays) came to 20%. Besides, the pest or weed control at 250 g/ha in experiment [8] was 20%; in experiment [9], 60%; with rice (Oryra sativa) it was 0%; in [10], 0%.
